The source made the active and inactive calls. The rule behind the calls is not given here.
Experiments:
Mesenchymal stem cells [1] = test: Induction of adiponectin synthesis in human differentiated BMMSC cells assessed as lipid accumulation at 10 uM measured after 5 days in the presence of IDX induction medium by Oil red O staining based inverted phase contrast microscope analysis; format: functional, cell-based; settings: time 5.0 day
Mesenchymal stem cells [2] = test: Upregulation of adiponectin mRNA expression in human BMMSC cells at 10 uM measured after 3 days by qRT-PCR analysis; format: functional, cell-based; settings: time 3.0 day
Mesenchymal stem cells [3] = test: Upregulation of PPARgamma mRNA expression in human BMMSC cells at 10 uM measured after 3 days by qRT-PCR analysis; format: functional, cell-based; settings: time 3.0 day
Mesenchymal stem cells [4] = test: Induction of adiponectin synthesis in human differentiated BMMSC cells at 10 uM measured after 5 days in the presence of IDX induction medium by ELISA; format: functional, cell-based; settings: time 5.0 day
Mesenchymal stem cells [5] = test: Upregulation of FABP4 mRNA expression in human BMMSC cells at 10 uM measured after 3 days by qRT-PCR analysis; format: functional, cell-based; settings: time 3.0 day
Mesenchymal stem cells [6] = test: Induction of adiponectin synthesis in human differentiated BMMSC cells measured after 5 days in the presence of IDX induction medium by ELISA; format: functional, cell-based; settings: 120 h
Mesenchymal stem cells [7] = test: Induction of adiponectin synthesis in human differentiated BMMSC cells assessed as fold increase in adiponectin level at 10 uM measured after 5 days in the presence of IDX induction medium by ELISA; format: functional; settings: time 5 day
[8] = molecular target: Estrogen receptor beta (Homo sapiens) (UniProt Q92731); test: Binding affinity to ERbeta (unknown origin) at 10 uM by Lanthascreen TR-FRET assay relative to control
Estrogen receptor beta (Homo sapiens), sequence (Q92731 whole entry): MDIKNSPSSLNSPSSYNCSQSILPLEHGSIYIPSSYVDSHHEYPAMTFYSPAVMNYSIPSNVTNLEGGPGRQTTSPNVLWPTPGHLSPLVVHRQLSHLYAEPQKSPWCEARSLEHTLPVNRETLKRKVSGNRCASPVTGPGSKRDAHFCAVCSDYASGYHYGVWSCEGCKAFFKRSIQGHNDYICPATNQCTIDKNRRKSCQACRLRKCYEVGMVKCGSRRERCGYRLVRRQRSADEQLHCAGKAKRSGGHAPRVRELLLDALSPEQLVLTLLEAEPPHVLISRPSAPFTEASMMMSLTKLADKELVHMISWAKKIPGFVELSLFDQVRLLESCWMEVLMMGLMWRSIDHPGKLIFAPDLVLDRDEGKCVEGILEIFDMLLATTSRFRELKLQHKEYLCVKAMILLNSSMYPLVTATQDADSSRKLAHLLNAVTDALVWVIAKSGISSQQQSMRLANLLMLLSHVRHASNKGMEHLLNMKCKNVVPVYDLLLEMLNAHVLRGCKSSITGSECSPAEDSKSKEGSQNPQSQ

[9] = molecular target: T1, Peroxisome proliferator-activated receptor gamma (Homo sapiens, UniProt P37231); test: Binding affinity to PPARgamma (unknown origin) assessed as inhibition constant by Lanthascreen TR-FRET assay relative to control
T1 sequence (P37231 whole entry): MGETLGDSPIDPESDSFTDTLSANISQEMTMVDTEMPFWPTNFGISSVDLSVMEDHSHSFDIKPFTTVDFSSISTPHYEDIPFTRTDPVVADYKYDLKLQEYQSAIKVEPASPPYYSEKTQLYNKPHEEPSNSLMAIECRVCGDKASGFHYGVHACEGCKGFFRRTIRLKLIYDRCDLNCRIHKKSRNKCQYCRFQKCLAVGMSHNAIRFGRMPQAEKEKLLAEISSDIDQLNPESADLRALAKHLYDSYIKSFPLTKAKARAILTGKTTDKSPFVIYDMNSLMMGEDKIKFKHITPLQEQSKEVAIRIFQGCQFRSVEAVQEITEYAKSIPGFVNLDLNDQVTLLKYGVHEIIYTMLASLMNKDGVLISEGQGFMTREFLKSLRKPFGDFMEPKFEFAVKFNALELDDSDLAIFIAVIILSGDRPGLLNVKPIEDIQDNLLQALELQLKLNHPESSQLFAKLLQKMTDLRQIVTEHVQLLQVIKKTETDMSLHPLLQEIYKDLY

`COc1cc(OC)c2c(=O)c(OCc3ccccc3)c(-c3ccccc3)oc2c1` was tested, and the Activity (Mesenchymal stem cells [1]) was “Active”, the Activity (Mesenchymal stem cells [2]) was “Active” and the Activity (Mesenchymal stem cells [3]) was “Active”. For the same molecule, the Activity (Mesenchymal stem cells [4]) was “Active” and the Activity (Mesenchymal stem cells [5]) was “Active”.
For `COc1cc(O)cc2oc(-c3ccccc3)c(OCc3ccccc3)c(=O)c12`, the EC50 (Mesenchymal stem cells [6]) was 14.9 µM, the Activity (Mesenchymal stem cells [1]) was “Active” and the Activity (Mesenchymal stem cells [2]) was “Active”. For the same molecule, the Activity (Mesenchymal stem cells [3]) was “Active”, the “fold change (FC)” value (Mesenchymal stem cells [7]) was 2.88 and the Activity (Mesenchymal stem cells [4]) was “Active”. The Activity (Mesenchymal stem cells [5]) was “Active”.
For `O=c1c(O)c(-c2ccccc2)oc2cc(O)cc(O)c12` [GALANGIN], the Activity (Mesenchymal stem cells [1]) was “Active”, the Activity (Mesenchymal stem cells [2]) was “Active” and the Activity [8] was 79.4%. For the same molecule, the Activity (Mesenchymal stem cells [3]) was “Active”, the Ki [9] was 5.6 µM and the Activity (Mesenchymal stem cells [4]) was “Active”. The Activity (Mesenchymal stem cells [5]) was “Active”.
With `COc1cc(O)c2c(=O)c(OCc3ccccc3)c(-c3ccccc3)oc2c1` the Activity (Mesenchymal stem cells [4]) was “Active”.
`COc1cc(OC(=O)c2ccccc2)cc2oc(-c3ccccc3)c(O)c(=O)c12` was tested, and the Activity (Mesenchymal stem cells [4]) was “Active”.
`COc1cc(OC(=O)c2ccccc2)cc2oc(-c3ccccc3)c(OCc3ccccc3)c(=O)c12` was tested, and the “fold change (FC)” value (Mesenchymal stem cells [7]) was 2.76 and the Activity (Mesenchymal stem cells [4]) was “Active”.

— ChEMBL document CHEMBL5120752, “Galangin 3-benzyl-5-methylether derivatives function as an adiponectin synthesis-promoting peroxisome proliferator-activated receptor γ partial agonist” (Bioorg Med Chem, 2022)
